{
  "source": "patent US5091187A",
  "about": "“Phospholipid-coated microcrystals: injectable formulations of water-insoluble drugs” (priority 1991, dated 1992)",
  "key": {"[1]": {"assay": "pKa and oil/water partition of indomethacin", "format": "physicochemical"}, "injected muscle": {"system": "injected muscle", "assay": "IM injection of albendazole sulfoxide preparations in rats", "format": "in vivo, rat", "details": "versus albendazole", "description": "The above experimentation was repeated with albendazole sulfoxide, a more water-soluble analogue of the drug. […] Solubility data for albendazole sulfoxide are: 0.42 mg/ml in water, 17.7 mg/ml in propylene glycol and 179.0 mg/ml in ethanol. […] Both preparations normally settled to albendazole sulfoxide concentrations of 20% (w/v). Samples (0.1 ml) of both preparations were injected IM in rats (n=6) and the muscles were examined at necropsy, 2 days post-injection. […] Propylene glycol, which has two OH groups and a dielectric constant of 32, is an example of a polar organic compound which can be substituted for water."}, "surgical wounds": {"system": "surgical wounds", "details": "crystals sprinkled into surgical wounds; cited from earlier work"}, "human skin": {"system": "human skin", "assay": "Pin prick anesthesia after intradermal injection, human self-experimentation", "details": "in vivo", "description": "The Inventor carried out self-experimentation with Preparation B. I made two intradermal injections of 0.15 ml of Preparation B into the skin of my calf, right leg, inside, at sites 12 cm and 22 cm below the knee. The injections raised weals approx. 1.1 cm in diameter. […] The weals subsided within ca. 30 sec. The injected sites were tested for pin prick and cold stimulus anesthesia for the next 24 hr.\nAs a control for the above, I injected myself with 0.15 ml volumes of solutions of 1%, 2% and 5% tetracaine-H-Cl. In attempt to make the concentrated solutions less damaging, the pH was adjusted from 5.3 to 6.5. Physiological tonicity was maintained by including glucose (4.3%, 3.2% and 0%, respectively). […] The 1% and 2% tetracaine-H-Cl solutions produced only mild erthrema, with return to normal color when the anesthesia subsided. […] The presented anesthesia values were taken at its periphery. […] This poor outcome with the 5% (w/v) tetracaine solution is in stark contrast to the excellent results obtained with the 20% (w/v) tetracaine-H-I microcrystal."}, "[2]": {"details": "water"}, "[3]": {"details": "IV injection; cited from earlier work"}},
  "note": "Structures can show the parent of a compound that is named as a salt.",
  "data": [
    {"smiles": "O=C1CN(/N=C/c2ccc(-c3ccc([N+](=O)[O-])cc3)o2)C(O)=N1", "note": "[Dantrolene]", "values": [
      {"measurement": "dissolution in organic solvents", "setting": "Solubility; 7.9 mg in mineral oil, n-dibutyl ether, methoxyflurane", "value": "did not dissolve"}
    ]},
    {"smiles": "COc1ccc2c(c1)c(CC(=O)O)c(C)n2C(=O)c1ccc(Cl)cc1", "note": "[Indomethacin]", "values": [
      {"measurement": "oil/water partition coefficient", "setting": "[1]; olive oil/water", "value": "55/1"},
      {"measurement": "oil/water partition coefficient", "setting": "[1]; pentanol/water", "value": "85/1"},
      {"measurement": "solubility", "setting": "Solubility; pH 9.6", "value": 30, "unit": "mg/mL"},
      {"measurement": "solubility", "setting": "Solubility; water, pH 7, water", "value": 0.376, "unit": "mg/mL"}
    ]},
    {"smiles": "CN(C)[C@@H]1C(=O)C(C(N)=O)=C(O)[C@@]2(O)C(=O)C3=C(O)c4c(O)cccc4[C@@](C)(O)[C@H]3[C@H](O)[C@@H]12", "note": "[OTC, oxytetracycline]", "values": [
      {"measurement": "solubility", "setting": "physchem; water, aqueous solubility", "value": "~1000", "unit": "µg/mL"}
    ]},
    {"smiles": "CCC[S+]([O-])c1ccc2[nH]c(NC(=O)OC)nc2c1", "note": "(stereo not shown) [albendazole sulfoxide]", "values": [
      {"measurement": "solubility", "setting": "physchem; ethanol, organic solvent or mixture, solubility, in ethanol", "value": 179000, "unit": "µg/mL"},
      {"measurement": "solubility", "setting": "physchem; propylene glycol, organic solvent or mixture, solubility, in propylene glycol", "value": 17700, "unit": "µg/mL"},
      {"measurement": "solubility", "setting": "physchem; water, aqueous solubility", "value": 420, "unit": "µg/mL"},
      {"measurement": "rate of absorption into the blood", "setting": "injected muscle", "value": "Faster rates of absorption into the blood"}
    ]},
    {"smiles": "CCCSc1ccc2nc(NC(=O)OC)[nH]c2c1", "note": "[albendazole]", "values": [
      {"measurement": "solubility", "setting": "physchem; water, aqueous solubility", "value": "< 100", "unit": "µg/mL"}
    ]},
    {"smiles": "CC[C@H]1OC(=O)[C@H](C)[C@@H](O[C@H]2C[C@@](C)(OC)[C@@H](O)[C@H](C)O2)[C@H](C)[C@@H](O[C@@H]2O[C@H](C)C[C@H](N(C)C)[C@H]2O)[C@](C)(O)C[C@@H](C)C(=O)[C@H](C)[C@@H](O)[C@]1(C)O", "note": "[erythromycin]", "values": [
      {"measurement": "solubility", "setting": "physchem; water", "value": 2000, "unit": "µg/mL"}
    ]},
    {"smiles": "CCCCNc1ccc(C(=O)OCCN(C)C)cc1", "note": "[hydroiodic acid (HI) salt of tetracaine, tetracaine-H-I]", "values": [
      {"measurement": "duration of local anesthesia", "setting": "surgical wounds", "value": 45, "unit": "h"},
      {"measurement": "extension of duration of action", "setting": "human skin", "value": "5 -fold"}
    ]},
    {"smiles": "CN(C)[C@@H]1C(=O)C(C(N)=O)=C(O)[C@@]2(O)C(=O)C3=C(O)c4c(O)cccc4[C@@](C)(O)[C@H]3[C@H](O)[C@@H]12", "note": "[oxytetracycline]", "values": [
      {"measurement": "aqueous solubility", "setting": "[2]", "value": 1.1, "unit": "mg/mL"}
    ]},
    {"smiles": "CCCC(C)C1(CC)C(=O)NC(=S)NC1=O", "note": "(stereo not shown) [thiopental]", "values": [
      {"measurement": "listed adverse reactions", "setting": "[3]", "value": "venous thrombosis or phlebitis extending from the site of injection"}
    ]}
  ]
}
